# From patent publication US8084209B2, “HMGCR isoforms in prediction of efficacy and identification of cholesterol-modulating compounds” (Children's Hospital & Research Center Oakland, priority 2005, dated 2011)
# Experiments:
# [1] = test system: total HMGCR (6-7) transcript; assay: HMGCR gene expression by real time PCR in immortalized lymphocyte cell lines, exons 6 to 7 assay; type: cell-based, human; conditions: 24 hours
# Method: Cell lines were grown at 37° C., 5% CO2 in RPMI Medium 1640 (Invitrogen) supplemented with 10% fetal bovine serum (Hyclone), 500 units/ml Penicillin/Streptomycin (Invitrogen) and 2 nM GlutaMAX (Invitrogen). […] Media was changed 24 hours prior to exposure to ensure the cultures were in an active growth phase. After exposure, cells were pelleted, resuspended in Trizol (Invitrogen), and stored at −80° C. until RNA extraction.
# RNA isolation and cDNA synthesis. RNA was isolated from the cell/Trizol slurries following the manufacturer's protocol (Invitrogen). RNA quality was assessed by gel electrophoresis and A260/A280 measured via spectrophotometry. […]
# Real time PCR standards were generated by amplifying 100 ng lymphocyte cDNA with 1×PCR buffer, 1.5 mM MgCl2, 0.5 mM dNTPs, 1 mM of each primer, and 0.125 units Taq DNA polymerase (Invitrogen). […] Eight PCR reactions for each standard was generated, pooled, and quantitated via gel electrophoresis using a DNA low mass ladder (Invitrogen). […] PCR standards were run in triplicate on each plate to serve as a positive control for the assay and to quantitate levels of gene expression.
# SLC7A5 and CLPTM1 were quantitated in all samples by TaqMan assays purchased from Applied Biosystems (part numbers Hs0018526_m1 and Hs00171300_m1). […]
# HMGCR(12-13) and spliced HMGCR(12-14) mRNA was quantified via real time PCR as described above.
# [2] = CAP trial: plasma lipid, lipoprotein and apoprotein response to 40 mg/day simvastatin; type: in vivo, human; set-up: LDL-Cholesterol, Absolute Difference / HDL-Cholesterol, Absolute Difference / ApoA1, Absolute Difference / ApoB, Absolute Difference / IDL-Cholesterol, Absolute Difference: unit not given here; Total Cholesterol, Absolute Difference: unit: mg/dL; conditions: for ApoA1, Absolute Difference / ApoB, Absolute Difference / HDL-Cholesterol, Absolute Difference / IDL-Cholesterol, Absolute Difference / LDL-Cholesterol, Absolute Difference / Total Cholesterol, Absolute Difference: 40 mg/day simvastatin in vivo
# Method: Patients and cell lines. The Cholesterol/Atherosclerosis Pharmacogenetics (CAP) trial was a non-randomized, non-blinded study of 944 African-American and Caucasian men and women age 30 or older with baseline total cholesterol of 160 to 400 mg/dL.
# A subset of 66 African American patients from the CAP trial was chosen for testing of the HMGCR gene expression assay (Examples 1, 2, 3, 4 and 5). An African American was defined as an individual who had three or more grandparents who self-identified as African American. A Caucasian was defined as an individual who had three or more grandparents who self-identified as Caucasian American. The table below provides a summary of the demographics for this population.
# The table below provides a summary of the population demographics.
# A dose study was performed with a second subset of 60 African American patients (Examples 1, 3, 4, and 5). […] The population demographics for this group is shown below.
# [3] = Study Population A, African Americans, N 66
# [4] = Study Population B, Caucasian Americans, N 43
# [5] = Study Population C, African Americans, N 60
# [6] = on statin therapy, data in Examples 1-5
structure (smiles),measurement,setting,value
CCC(C)(C)C(=O)O[C@H]1C[C@@H](C)C=C2C=C[C@H](C)[C@H](CC[C@@H]3C[C@@H](O)CC(=O)O3)[C@H]21 [simvastatin],up-regulation of HMGCR(6-7),"[1]; African American cell lines, 14.5 μM simvastatin",1.65±0.48 fold
same,"total HMGCR (6-7) gene up-regulation, average fold change","[1]; cell lines derived from African Americans, 1.8 μM activated simvastatin",1.44 fold
same,mean HDL-cholesterol increase,"[2]; African Americans, on statin therapy",0.96 mg/dL
same,mean HDL-cholesterol increase,"[2]; Caucasian Americans, on statin therapy",2.17 mg/dL
same,"ApoA1, Absolute Difference",[2]; [3],−1.69 ± 1.76
same,"ApoB, Absolute Difference",[2]; [3],−27.11 ± 1.71
same,"HDL-Cholesterol, Absolute Difference",[2]; [3],0.96 ± 0.75
same,"IDL-Cholesterol, Absolute Difference",[2]; [3],−9.06 ± 0.75
same,"LDL-Cholesterol, Absolute Difference",[2]; [3],−51.17 ± 2.37
same,"Total Cholesterol, Absolute Difference",[2]; [3],−54.48 ± 2.79
same,"ApoA1, Absolute Difference",[2]; [4],−2.114 ± 2.271
same,"ApoB, Absolute Difference",[2]; [4],−33.091 ± 2.700
same,"HDL-Cholesterol, Absolute Difference",[2]; [4],2.155 ± 0.904
same,"IDL-Cholesterol, Absolute Difference",[2]; [4],−10.373 ± 1.066
same,"LDL-Cholesterol, Absolute Difference",[2]; [4],−63.909 ± 3.455
same,"Total Cholesterol, Absolute Difference",[2]; [4],−65.614 ± 3.791
same,"ApoA1, Absolute Difference",[2]; [5],2.80 ± 1.79
same,"ApoB, Absolute Difference",[2]; [5],−28.03 ± 1.88
same,"HDL-Cholesterol, Absolute Difference",[2]; [5],1.98 ± 0.55
same,"IDL-Cholesterol, Absolute Difference",[2]; [5],−10.23 ± 0.80
same,"LDL-Cholesterol, Absolute Difference",[2]; [5],−55.74 ± 3.36
same,"Total Cholesterol, Absolute Difference",[2]; [5],−57.73 ± 3.62
same,mean IDL cholesterol reduction (printed: mean total cholesterol reduction),[2]; [6],-9.85 mg/dL
same,mean LDL-cholesterol reduction,[2]; [6],-56.0 mg/dL
same,mean total cholesterol reduction,[2]; [6],-58.5 mg/dL
